Data set [1] relates to A549. The experiment in a line: Reduction in ganglioside GM2 content of human A549 cell extract at 15 uM after 48 hrs by UPLC-MS analysis. In kind it is functional, cell-based.
In data set [2] the test system is C6. The experiment in a line: Antitumor activity against rat C6 cells xenografted in nude mouse assessed as reduction in tumor volume at 1 to 10 mg/kg, intratumorally administered for 8 days measured after 8 days relative to control. In kind it is functional, organism-based.
In data set [3] the test system is A549. Description: Reduction in glucosylceramide content of human A549 cell extract at 15 uM after 48 hrs by UPLC-MS analysis. In kind it is functional, cell-based.
Data set [4] concerns A549. The experiment in a line: Elevation in lactosylceramide content of human A549 cell extract at 15 uM after 48 hrs by UPLC-MS analysis. In kind it is functional.
Data set [5] has as its system A549. Description: Reduction in ganglioside GM3 content of human A549 cell extract at 15 uM after 48 hrs by UPLC-MS analysis. In kind it is functional, cell-based.
For data set [6], the system named is A549. Description: Antiproliferative activity against human A549 cells after 48 hrs by MTT assay. Conditions: A549, 48 h, read-out: ID50 (the source's name). In kind it is functional. (In general: Tetrazolium dyes change colour on reduction, which living cells bring about.)
Data set [7] can be described thus: Drug uptake in cyst of nude mouse xenografted with rat C6 cells assessed as formation of olelyl alcohol at 10 mg/kg, intratumorally administered for 8 days by 1H MAS NMR spectroscopy. Also noted: dose 10 mg/kg. Particulars: in vivo, other, 192 h. In kind it is ADME, organism-based.
In data set [8] the test system is C6. Description: Antitumor activity against rat C6 cells xenografted in nude mouse assessed as delay in tumor growth at 1 to 10 mg/kg, intratumorally administered for 8 days measured after 8 days relative to control. In kind it is functional, organism-based.
The subject of data set [9] is C6. Description: Antiproliferative activity against rat C6 cells after 48 hrs by MTT assay. In kind it is functional. Particulars: C6, 48 h, read-out: ID50 (the source's name).
Data set [10] concerns A549. Description: Drug uptake in 10^6 human A549 cells at 15 uM after 48 hrs by UPLC-MS analysis. Particulars: a549, 48 h. In kind it is ADME, cell-based.
The test system of data set [11] is C6. The experiment in a line: Antitumor activity against rat C6 cells xenografted in nude mouse assessed as reduction in tumor size at 1 mg/kg, intratumorally administered for 14 days. In kind it is functional, organism-based. Also noted: dose 1 mg/kg.
Data set [12] deals with A549. The experiment in a line: Elevation in glucosylceramide content of human A549 cell extract at 15 uM after 48 hrs by UPLC-MS analysis. In kind it is functional, cell-based.
The nature of data set [13]: Stability of the compound in presence of Jack bean N-acetyl-D-glucosaminidase at 1 mM after 48 hrs by HPLC analysis. In kind it is ADME. Conditions: 1000 µM.
Data set [14] relates to N-acetyl-D-glucosaminidase. Description: Stability of the compound in presence of Jack bean N-acetyl-D-glucosaminidase assessed as compound hydrolyzed to N-acetyl-D-glucosamine at 1 mM after 48 hrs by HPLC analysis. Particulars: Jack bean N-acetyl-D-glucosaminidase (isolated enzyme), read-out: Activity. In kind it is ADME.
Data set [15] relates to C6. The experiment in a line: Antitumor activity against rat C6 cells xenografted in nude mouse assessed as increase in choline-containing metabolite levels in tumor at 10 mg/kg, intratumorally administered for 14 days by 1H MAS NMR spectroscopy relative to control. In kind it is functional, organism-based. Also noted: dose 10 mg/kg.
Data set [16] deals with C6. The experiment in a line: Antitumor activity against rat C6 cells xenografted in nude mouse assessed as increase in lactate levels in tumor at 10 mg/kg, intratumorally administered for 14 days by 1H MAS NMR spectroscopy relative to control. In kind it is functional, organism-based. Also noted: dose 10 mg/kg.
The test system of data set [17] is C6. The experiment in a line: Antitumor activity against rat C6 cells xenografted in nude mouse assessed as reduction of creatine levels in tumor at 10 mg/kg, intratumorally administered for 14 days by 1H MAS NMR spectroscopy relative to control. In kind it is functional, organism-based. Also noted: dose 10 mg/kg.
The subject of data set [18] is C6. Description: Antitumor activity against rat C6 cells xenografted in nude mouse assessed as reduction in tumor size at 10 mg/kg, intratumorally administered for 14 days relative to control. In kind it is functional, organism-based. Also noted: dose 10 mg/kg.
The subject of data set [19] is C6. Description: Antitumor activity against rat C6 cells xenografted in nude mouse assessed as increase in acetate levels in tumor at 10 mg/kg, intratumorally administered for 14 days by 1H MAS NMR spectroscopy relative to control. In kind it is functional, organism-based. Also noted: dose 10 mg/kg.

Activity calls are given as the source filed them. No cut-off for these calls is given here.

For `CCCCCCCC/C=C\CCCCCCCCO[C@H]1O[C@H](CO)[C@@H](O)[C@H](O)[C@H]1NC(C)=O`, the result in data set [1] and in data set [5] was Active. Moreover, the result in data set [2], in data set [3], in [8] and in data set [11] was inactive. The same molecule yielded an Activity in data set [4] of 40%. Also, the IC50 in data set [6] amounted to 25 µM; in data set [9], 16 µM. Moreover, the Drug uptake result is given as “Active” in data set [7] and 2916 pmol in data set [10].

Take `CCCCCCCC/C=C\CCCCCCCCS[C@@H]1O[C@H](CO)[C@@H](O)[C@H](O)[C@H]1NC(C)=O`: the result in data set [1] and in data set [5] was Active. In [4], this molecule showed an Activity of 40%. For the same molecule, the IC50 is 30 µM in [6] and 26 µM in [9]. Moreover, the outcome in data set [12] was inactive. Besides, in [13], the Stability result was “Stable”. This molecule also had a Drug uptake in data set [10] of 3333 pmol.

In the case of `CCCCCCCC/C=C\CCCCCCCCO[C@@H]1O[C@H](CO)[C@@H](O)[C@H](O)[C@H]1NC(C)=O`, the outcome in [1] and in data set [5] was Active. Also, in data set [4], the Activity was 40%. Also, the IC50 was 50 µM in [6] and 38 µM in [9]. Also, the outcome in [12] was inactive. This molecule also showed a Drug uptake in [10] of 952 pmol. For the same molecule, the metabolised at 48 h, 1000 µM in data set [14] worked out at 32%.

Take `CCCCCCCC/C=C\CCCCCCCCS[C@H]1O[C@H](CO)[C@@H](O)[C@H](O)[C@H]1NC(C)=O`: the result in data set [1], in [15], in [16], in [17], in data set [5] and in data set [18] was Active. In addition, in data set [19], the result was Active. Further, the result in data set [3] and in data set [11] was inactive. In addition, the Activity in data set [4] was determined as 40%. Besides, the IC50 in data set [6] amounted to 35 µM; in data set [9], 14 µM. The Drug uptake in [10] is listed as 3675 pmol.

The values above are taken from ChEMBL document CHEMBL1828591, “Synthesis of antimitotic thioglycosides: in vitro and in vivo evaluation of their anticancer activity” (J Med Chem, 2011).
